Test results from US8710064B2, “2-aryl-4-quinazolinones and their pharmaceutical compositions” (China Medical University, priority 2011, dated 2014).

How the values were obtained:
M21 = assay: trypan blue exclusion assay, M21 cells; format: cell-based; details: Homo sapiens; M21 skin cancer; trypan blue exclusion assay; read-out: IC50 M21
Protocol: M21 cell line (human malignant melanoma) was provided by Dr. Feng-Yao Tang (China Medical University, Taiwan). Cells were grown in monolayer culture in RPMI-1640 medium, Eagle's minimum essential medium or Dulbecco's modified Eagles medium (Invitrogen Corporation, Grand Island, N.Y., USA) containing 10% fetal bovine serum (FBS; HyClone, Logan, Utah, USA), 100 U/ml penicillin and 100 μg/ml streptomycin (Gibco BRL, Rockville, Md., USA).
(§1) Cell viability was also determined by trypan-blue exclusion assay. Cells were seeded in 6-well plates (2×10^4/well) for trypan blue exclusion assay, and incubated for 24 hours at 37° C. Culture medium containing test compound or DMSO (0.006%) was added to each well, and cells were incubated at 37° C. At indicated time points (0, 24, 48, 72 and 96 hr), cells were suspended with 0.05% trypsin-EDTA, and stained with trypan-blue dye (0.4%) (Sigma). The cell viability was evaluated by the percentage of death relative to the total cell, and cell growth curve was determined by number of live cells relative to the total number of cells.
(§2) The anti-proliferation effects of Compounds 17-31 on M21, CH27, H460, Hep3B and HSC-3 cells were evaluated by the trypan blue exclusion assay.

Hep3B = assay: trypan blue exclusion assay, Hep3B cells; format: cell-based; details: Hep3B human hepatoma
Protocol: (§3) Hep3B (human hepatocellular carcinoma) and H460 (lung non-small carcinoma) cells were grown in monolayer culture in Dulbecco's modified Eagle's medium (DMEM) (Life Technologies, Rockville, Md., USA) containing 5% fetal bovine serum (HyClone, Logan, Utah, USA), 100 U/ml penicillin and 100 μg/ml streptomycin (Gibco BRL, Rockville, Md., USA) and 2 mM glutamine (Merck, Darmstadt, Germany).
as §1, §2

H460 = assay: trypan blue exclusion assay, H460 cells; format: cell-based; details: NCI-H460, H460 human non-small cell lung cancer
Protocol: as §3, §1, §2

[1] = test system: M21, CH27, H460, Hep3B and HSC-3 cells; assay: trypan blue exclusion assay, cancer cell panel (summary); format: cell-based; details: summary of Table 2
Protocol: as §1, §2

HSC-3 = assay: trypan blue exclusion assay, HSC-3 cells; format: cell-based, human; details: for IC50: HSC-3 human squamous carcinoma, trypan blue exclusion assay
Protocol: The HSC-3 (human oral squamous cell carcinoma) were cultured in 1:1 Dulbecco's Modified Eagle's Medium (DMEM) and Ham's Nutrient Mixture F-12, containing 10% FBS (HyClone, Logan, Utah, USA), 100 U/ml penicillin, 100 μg/ml streptomycin (Gibco BRL, Rockville, Md., USA) and 2 mM glutamine (Merck, Darmstadt, Germany).
as §1, §2

CH27 = assay: trypan blue exclusion assay, CH27 cells; format: cell-based; details: CH27 human lung squamous carcinoma
Protocol: CH27 cells (Human lung squamous carcinoma) were grown in monolayer culture in Dulbecco's modified Eagle's medium (DMEM; Life Technologies, Rockville, Md., USA) containing 5% FBS (HyClone, Logan, Utah, USA), 100 U/ml penicillin, […] streptomycin (Gibco BRL, Rockville, Md., USA) and 2 mM glutamine (Merck, Darmstadt, Germany).
as §1, §2

[2] = test system: U87 human glioma cell lines; assay: MTS cell viability assay, U87 glioma cells; format: cell-based; details: 48 hours, mean±SEM, n=3
Protocol: (§4) The human glioma cell lines U87, U251, T98G, U373, and rat glioma cell line RT2 provided by Dr. Michael Hsiao (Genomics Research Center, Academia Sinica, Taiwan) were cultured in Dulbecco's Modified Eagle medium (DMEM) (Caisson) supplemented with 10% fetal bovine serum (FBS) (Sigma-Aldrich), 2 mM L-glutamine (Caisson), 100 U/ml penicillin, and 100 μg/ml streptomycin (Caisson). The rat glioma C6 cell line provided by Dr. Shun-Fen Tzeng (National Cheng Kung University, Taiwan) was cultured in DMEM/F12 (Caisson) supplemented with 10% fetal bovine serum, 2 mM L-glutamine, 100 U/ml penicillin, and 100 μg/ml streptomycin. The human normal glia cell line SVGP12, kindly provided by Dr. Michael Hsiao, was cultured in Minimum Essential Medium (MEM) (Invitrogen) supplemented with 10% fetal bovine serum, 2 mM L-glutamine, 100 U/ml penicillin, and […]. Primary glia cells were prepared by surgery. Cerebral cortices without meninges were dissected from postnatal (P0-P2) Sprague-Dawley (SD, NCKU Laboratory Animal Center) rats and dissociated in 0.05% trypsin-EDTA (Biowest) at 37° C. for 10 min. Culture medium was added and pipetted for several times, and supernatant was removed after a centrifugation at 1,000 rpm for 5 minutes. […]
(§5) Cell proliferation was determined by MTS (tetrazolium compound, 3-(4,5-dimethylthiazol-2-yl)-5-(3-carboxymethoxyphenyl)-2-(4-sulfophenyl)-2H-tetrazolium) assay (Promega). […] The absorbance of soluble formazan was measured at 490 nm with microplate reader (Molecular device). The cell viability was determined by the percentage of the absorption relative to untreated control. […]
(§6) To investigate the effect of 2-aryl-4-quinazolinone in accordance with the present invention on cell proliferation, glioma cell lines were treated with MJ-66, MJ-68, or MJ-78. […] The cell viability of each group was analyzed by MTS assay (mean±SEM, n=3).

C6 rat glioma = assay: MTS cell viability assay, C6 glioma cells; format: cell-based; details: 48 hours, mean±SEM, n=3
Protocol: as §4, §5, §6

SMILES | IC50 (M21) | IC50 (Hep3B) | IC50 (H460) | cytotoxic effects toward cancer cells [1] | IC50 (HSC-3) | activity on HSC-3 cells (HSC-3; summary of Table 2) | IC50 (CH27) | melting point | IC50 [2] | IC50 (C6 rat glioma)
COc1ccc2nc(-c3cccc4ccccc34)[nH]c(=O)c2c1 [Compound 17, 6-Methoxy-2-(naphthalen-1-yl) quinazolin-4-one] | 6.09 µM | 1.87 µM | 0.079 µM | exhibited cytotoxic effects | > 10 µM | inactive | 0.089 µM |  |  | 
COc1ccc2nc(-c3c[nH]c4ccccc34)[nH]c(=O)c2c1 [Compound 18, 6-Methoxy-2-(1H-indol-3-yl) quinazolin-4-one] | > 10 µM | > 10 µM | > 10 µM |  | > 10 µM |  | > 10 µM | 311 to 312 °C |  | 
COc1ccc2nc(-c3csc4ccccc34)[nH]c(=O)c2c1 [Compound 19, 6-Methoxy-2-(benzo[b]thiophen-3-yl) quinazolin-4-one] | > 10 µM | > 10 µM | > 10 µM |  | > 10 µM |  | > 10 µM | 289 to 290 °C |  | 
CN(C)c1ccc2nc(-c3cccc4ccccc34)[nH]c(=O)c2c1 [Compound 20, 6-(N,N-Dimethylamino)-2-(naphthalen-1-yl) quinazolin-4-one] | 3.77 µM | 8.63 µM | 0.506 µM | exhibited cytotoxic effects | 0.202 µM |  | 0.447 µM |  |  | 
CN(C)c1ccc2nc(-c3c[nH]c4ccccc34)[nH]c(=O)c2c1 [Compound 21, 6-(N,N-Dimethylamino)-2-(1H-indol-3-yl)quinazolin-4-one] | > 10 µM | > 10 µM | > 10 µM |  | > 10 µM |  | > 10 µM | > 300 °C |  | 
CN(C)c1ccc2nc(-c3csc4ccccc34)[nH]c(=O)c2c1 [Compound 22] | > 10 µM | > 10 µM | > 10 µM |  | > 10 µM |  | > 10 µM | > 300 °C |  | 
O=c1[nH]c(-c2c[nH]c3ccccc23)nc2ccc(N3CCCC3)cc12 [Compound 24, 6-(Pyrrolidin-1-yl)-2-(1H-indol-3-yl)quinazolin-4-one] | 7.63 µM | 7.39 µM | 8.81 µM | exhibited cytotoxic effects | 1.89 µM |  | 8.7 µM |  |  | 
O=c1[nH]c(-c2csc3ccccc23)nc2ccc(N3CCCC3)cc12 [Compound 25, 6-(Pyrrolidin-1-yl)-2-(benzo[b]thiophen-3-yl)quinazolin-4-one] | > 10 µM | > 10 µM | > 10 µM |  | > 10 µM |  | > 10 µM | > 300 °C | > 1 µM | > 1 µM
O=c1[nH]c(-c2cccc3ccccc23)nc2ccc(N3CCCCC3)cc12 [Compound 26, 6-(Piperidin-1-yl)-2-(naphthalen-1-yl)quinazolin-4-one] | 1.59 µM | 7.24 µM | 0.376 µM | exhibited cytotoxic effects | 1.73 µM |  | 0.362 µM |  | 0.54 ± 0.24 µM | 0.47 ± 0.16 µM
O=c1[nH]c(-c2c[nH]c3ccccc23)nc2ccc(N3CCCCC3)cc12 [Compound 27, 6-(Piperidin-1-yl)-2-(1H-indol-3-yl)quinazolin-4-one] | 8.99 µM | 5.65 µM | 6.86 µM | exhibited cytotoxic effects | > 10 µM |  | > 10 µM |  |  | 
O=c1[nH]c(-c2csc3ccccc23)nc2ccc(N3CCCCC3)cc12 [Compound 28] | > 10 µM | > 10 µM | > 10 µM |  | > 10 µM |  | > 10 µM | > 300 °C |  | 
O=c1[nH]c(-c2cccc3ccccc23)nc2ccc(N3CCOCC3)cc12 [Compound 29, 6-(Morpholino)-2-(naphthalen-1-yl)quinazolin-4-one] | 2.33 µM | 1.06 µM | 0.432 µM | exhibited cytotoxic effects | 0.614 µM |  | 0.597 µM |  |  | 
O=c1[nH]c(-c2c[nH]c3ccccc23)nc2ccc(N3CCOCC3)cc12 [Compound 30, 6-(Morpholino)-2-(1H-indol-3-yl)quinazolin-4-one] | > 10 µM | > 10 µM | > 10 µM |  | > 10 µM |  | > 10 µM | > 300 °C |  | 
O=c1[nH]c(-c2csc3ccccc23)nc2ccc(N3CCOCC3)cc12 [Compound 31, 6-(Morpholino)-2-(benzo[b]thiophen-3-yl) quinazolin-4-one] | > 10 µM | > 10 µM | > 10 µM |  | > 10 µM |  | > 10 µM | > 300 °C |  | 
